From ChEMBL document CHEMBL1201862, “PubChem BioAssay data set” (2004)
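Cells were grown in 96-well plates and exposed to each compound for 48 hours at five concentrations; endpoints were interpolated linearly between bracketing concentrations, or set to the highest concentration if not reached. The concentration for 50% growth inhibition is given as GI50.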 Calls of active or inactive are those of the source. Cut-off read from the data, not from the text of the source: active = GI50 up to about 1.1 µM and inactive = higher.

Assays:
Assay in all cases: DTP human tumour cell line panel, 48 h
[1] = system: SK-MEL-2
[2] = system: MOLT-4
[3] = system: K562
[4] = system: HL-60
[5] = system: NCI-H226
[6] = system: HOP-92
[7] = system: SF-295
[8] = system: MCF7
[9] = system: CAKI-1
[10] = system: ACHN
[11] = system: SK-MEL-5
[12] = system: SN12C
[13] = system: HCC 2998
[14] = system: SNB-75
[15] = system: SF-539
[16] = system: SK-MEL-28
[17] = system: OVCAR-4
[18] = system: HCT-116
[19] = system: UO-31
[20] = system: RXF 393

With `O=c1cc(N2CCCC2)[nH]c(=O)n1-c1ccccc1` the GI50 [1] was > 100 µM (inactive), the GI50 [2] was > 100 µM (inactive) and the GI50 [3] was > 100 µM (inactive). The GI50 [4] was > 100 µM (inactive), the GI50 [5] was > 100 µM (inactive) and the GI50 [6] was > 100 µM (inactive). The GI50 [7] was > 100 µM (inactive), the GI50 [8] was > 100 µM (inactive) and the GI50 [9] was > 100 µM (inactive). The GI50 [10] was > 100 µM (inactive), the GI50 [11] was > 100 µM (inactive) and the GI50 [12] was > 100 µM (inactive). For the same compound, the GI50 [13] was 37 µM (inactive), the GI50 [14] was > 100 µM (inactive) and the GI50 [15] was > 100 µM (inactive). For the same compound, the GI50 [16] was > 100 µM (inactive), the GI50 [17] was > 100 µM (inactive) and the GI50 [18] was > 100 µM (inactive).

`COc1cc(OC2OC(CO)C(O)C(O)C2O)c2c(O)c3c(=O)cc(C)oc3cc2c1` (stereo not drawn) was tested, and the GI50 [1] was > 100 µM (inactive), the GI50 [2] was > 100 µM (inactive) and the GI50 [3] was > 100 µM (inactive). The GI50 [4] was > 100 µM (inactive), the GI50 [5] was 9.55 µM (inactive) and the GI50 [6] was > 10 µM (inactive). The GI50 [7] was 65.5 µM (inactive), the GI50 [8] was > 100 µM (inactive) and the GI50 [9] was > 100 µM (inactive). The GI50 [10] was > 100 µM (inactive), the GI50 [11] was > 100 µM (inactive) and the GI50 [19] was > 100 µM (inactive). For the same compound, the GI50 [13] was > 100 µM (inactive), the GI50 [14] was > 100 µM (inactive) and the GI50 [15] was 94 µM (inactive). The GI50 [16] was > 100 µM (inactive), the GI50 [17] was > 100 µM (inactive) and the GI50 [18] was > 100 µM (inactive).

With `CC(=O)OCc1ccc(-c2nc(C#N)c(N)o2)o1` the GI50 [2] was > 10 µM (inactive), the GI50 [3] was > 10 µM (inactive) and the GI50 [4] was > 10 µM (inactive). For the same compound, the GI50 [5] was > 10 µM (inactive), the GI50 [6] was > 10 µM (inactive) and the GI50 [7] was > 10 µM (inactive). The GI50 [20] was > 10 µM (inactive), the GI50 [8] was > 10 µM (inactive) and the GI50 [9] was > 10 µM (inactive). The GI50 [10] was > 10 µM (inactive), the GI50 [11] was > 10 µM (inactive) and the GI50 [12] was > 10 µM (inactive). For the same compound, the GI50 [19] was > 10 µM (inactive), the GI50 [13] was > 10 µM (inactive) and the GI50 [14] was > 10 µM (inactive). For the same compound, the GI50 [15] was > 10 µM (inactive), the GI50 [16] was > 10 µM (inactive) and the GI50 [17] was > 10 µM (inactive). For the same compound, the GI50 [18] was > 10 µM (inactive).

`O=C1C(N2CCNCC2)=C(Cl)C(=O)c2ncccc21` was tested, and the GI50 [1] was > 10 µM (inactive), the GI50 [2] was 2.44 µM (inactive) and the GI50 [3] was > 10 µM (inactive). For the same compound, the GI50 [5] was > 10 µM (inactive), the GI50 [6] was 3.25 µM (inactive) and the GI50 [7] was > 10 µM (inactive). For the same compound, the GI50 [20] was > 10 µM (inactive), the GI50 [8] was 3.02 µM (inactive) and the GI50 [9] was > 10 µM (inactive). For the same compound, the GI50 [10] was > 10 µM (inactive), the GI50 [11] was 5.79 µM (inactive) and the GI50 [12] was > 10 µM (inactive). For the same compound, the GI50 [13] was > 10 µM (inactive), the GI50 [14] was > 10 µM (inactive) and the GI50 [15] was > 10 µM (inactive). For the same compound, the GI50 [16] was > 10 µM (inactive), the GI50 [17] was > 10 µM (inactive) and the GI50 [18] was 1.86 µM (inactive).

`C=CC1=C(C)c2cc3[nH]c(c4c5nc(cc6[nH]c(cc1n2)c(C)c6CC)C=C5C(=O)C4C(=O)OC)C(CCC(=O)OC/C=C(\C)CCCC(C)CCCC(C)CCCC(C)C)C3C.C=CC1=C(C)c2cc3[nH]c(c4c5nc(cc6[nH]c(cc1n2)c(C=O)c6CC)C=C5C(=O)C4C(=O)OC)C(CCC(=O)OC/C=C(\C)CCCC(C)CCCC(C)CCCC(C)C)C3C` (stereo not drawn) was tested, and the GI50 [1] was > 100 µM (inactive), the GI50 [2] was > 100 µM (inactive) and the GI50 [3] was > 100 µM (inactive). The GI50 [4] was 10 µM (inactive), the GI50 [5] was > 100 µM (inactive) and the GI50 [6] was > 100 µM (inactive). The GI50 [7] was > 100 µM (inactive), the GI50 [8] was > 100 µM (inactive) and the GI50 [9] was > 100 µM (inactive). For the same compound, the GI50 [10] was > 100 µM (inactive), the GI50 [11] was > 100 µM (inactive) and the GI50 [12] was > 100 µM (inactive). The GI50 [19] was > 100 µM (inactive), the GI50 [13] was > 100 µM (inactive) and the GI50 [14] was > 100 µM (inactive). The GI50 [15] was > 100 µM (inactive), the GI50 [16] was > 100 µM (inactive) and the GI50 [17] was > 100 µM (inactive). For the same compound, the GI50 [18] was > 100 µM (inactive).

In the case of `N#Cc1nnn(-c2ccc(Br)cc2)c1O`, the GI50 [1] is reported as > 100 µM (inactive), the GI50 [2] is reported as 10 µM (inactive) and the GI50 [3] is reported as > 100 µM (inactive). The GI50 [4] was > 100 µM (inactive), the GI50 [5] was > 100 µM (inactive) and the GI50 [7] was > 100 µM (inactive). For the same compound, the GI50 [20] was > 100 µM (inactive), the GI50 [8] was > 100 µM (inactive) and the GI50 [9] was > 100 µM (inactive). The GI50 [10] was > 100 µM (inactive), the GI50 [12] was > 100 µM (inactive) and the GI50 [19] was > 100 µM (inactive). For the same compound, the GI50 [13] was > 100 µM (inactive), the GI50 [14] was > 100 µM (inactive) and the GI50 [15] was > 100 µM (inactive). For the same compound, the GI50 [16] was > 100 µM (inactive), the GI50 [17] was > 100 µM (inactive) and the GI50 [18] was > 100 µM (inactive).

For `O=c1c2ccccc2ncn1COCc1ccccc1`, the GI50 [1] was > 100 µM (inactive), the GI50 [2] was > 100 µM (inactive) and the GI50 [3] was > 100 µM (inactive). For the same compound, the GI50 [4] was > 100 µM (inactive), the GI50 [5] was > 100 µM (inactive) and the GI50 [6] was > 100 µM (inactive). For the same compound, the GI50 [7] was > 100 µM (inactive), the GI50 [20] was > 100 µM (inactive) and the GI50 [8] was > 100 µM (inactive). The GI50 [10] was > 100 µM (inactive), the GI50 [11] was > 100 µM (inactive) and the GI50 [19] was 77.3 µM (inactive). For the same compound, the GI50 [13] was > 100 µM (inactive), the GI50 [15] was > 100 µM (inactive) and the GI50 [16] was > 100 µM (inactive). The GI50 [17] was > 100 µM (inactive) and the GI50 [18] was > 100 µM (inactive).

With `CC(=O)[C@H]1CC[C@@H]2[C@]1(C)CC=C1[C@]23C=C[C@]2(C[C@@H](O)CC[C@]12C)C(C(=O)O)C3C(=O)O` (stereo partly drawn) the GI50 [1] was > 100 µM (inactive), the GI50 [2] was > 100 µM (inactive) and the GI50 [3] was > 100 µM (inactive). The GI50 [4] was > 100 µM (inactive), the GI50 [5] was > 100 µM (inactive) and the GI50 [6] was > 100 µM (inactive). For the same compound, the GI50 [7] was > 100 µM (inactive), the GI50 [8] was > 100 µM (inactive) and the GI50 [9] was > 100 µM (inactive). The GI50 [10] was > 100 µM (inactive), the GI50 [11] was > 100 µM (inactive) and the GI50 [12] was > 100 µM (inactive). For the same compound, the GI50 [19] was > 100 µM (inactive), the GI50 [13] was > 100 µM (inactive) and the GI50 [14] was > 100 µM (inactive). For the same compound, the GI50 [15] was > 100 µM (inactive), the GI50 [16] was > 100 µM (inactive) and the GI50 [17] was > 100 µM (inactive). The GI50 [18] was > 100 µM (inactive).

`CC(C)CCCC(C)[C@H]1CCC(C2C[C@@H](O)[C@@H]3CC(O)[C@@H](O)C[C@]3(CO)C2=O)[C@]1(C)CCO` (stereo partly drawn) was tested, and the GI50 [1] was 22.3 µM (inactive), the GI50 [2] was 0.491 µM (active) and the GI50 [3] was 24.4 µM (inactive). The GI50 [4] was 16.1 µM (inactive), the GI50 [5] was 30.7 µM (inactive) and the GI50 [7] was 20.4 µM (inactive). The GI50 [20] was 24.9 µM (inactive), the GI50 [8] was 14.2 µM (inactive) and the GI50 [11] was 14.2 µM (inactive). For the same compound, the GI50 [12] was 30.2 µM (inactive), the GI50 [19] was 23 µM (inactive) and the GI50 [13] was 21.2 µM (inactive). For the same compound, the GI50 [14] was 20.4 µM (inactive), the GI50 [15] was 20.9 µM (inactive) and the GI50 [16] was 21.8 µM (inactive). The GI50 [17] was 30.6 µM (inactive) and the GI50 [18] was 20 µM (inactive).

In the case of `Cc1ccc2c(O)cc(-c3sccc3C)nc2n1`, the GI50 [2] is reported as 0.486 µM (active), the GI50 [3] is reported as 0.427 µM (active) and the GI50 [4] is reported as 0.174 µM (active). For the same compound, the GI50 [5] was 1.38 µM (inactive), the GI50 [6] was > 36.8 µM (inactive) and the GI50 [7] was 0.497 µM (active). For the same compound, the GI50 [20] was 1.31 µM (inactive), the GI50 [8] was 0.315 µM (active) and the GI50 [9] was 0.792 µM (active). The GI50 [10] was 1.1 µM (active), the GI50 [11] was 0.266 µM (active) and the GI50 [12] was 1.67 µM (inactive). For the same compound, the GI50 [19] was 1.52 µM (inactive), the GI50 [13] was 1.02 µM (active) and the GI50 [14] was 0.726 µM (active). The GI50 [15] was 0.474 µM (active), the GI50 [17] was 9.79 µM (inactive) and the GI50 [18] was 0.452 µM (active).

With `C[C@]12CC[C@H](O)CC1=CC[C@@H]1[C@@H]2CC[C@]2(C)C(=O)CC[C@@H]12` [PRASTERONE] the GI50 [1] was > 100 µM (inactive), the GI50 [2] was > 100 µM (inactive) and the GI50 [5] was > 100 µM (inactive). The GI50 [7] was > 100 µM (inactive), the GI50 [20] was > 100 µM (inactive) and the GI50 [8] was > 100 µM (inactive). The GI50 [9] was > 100 µM (inactive), the GI50 [10] was > 100 µM (inactive) and the GI50 [11] was > 100 µM (inactive). The GI50 [12] was > 100 µM (inactive), the GI50 [19] was > 100 µM (inactive) and the GI50 [13] was > 100 µM (inactive). For the same compound, the GI50 [14] was > 100 µM (inactive), the GI50 [15] was > 100 µM (inactive) and the GI50 [16] was > 100 µM (inactive). The GI50 [17] was > 100 µM (inactive) and the GI50 [18] was > 100 µM (inactive).
